Test results reported in paper PMC5979600, “An Organic Solvent-Tolerant Lipase with Both Hydrolytic and Synthetic Activities from the Oleaginous Fungus Mortierella echinosphaera” (International Journal of Molecular Sciences, 2018).

Tested on: T1, extracellular lipase from Mortierella echinosphaera CBS 575.75 (M. echinosphaera lipase)
T1 construct: native enzyme purified from culture filtrate (ammonium sulfate, Sephadex G-75, Macro-Prep High Q, Sephacryl S-200 HR); about 30 kDa by SDS-PAGE
Test: p-nitrophenol release, Lineweaver-Burk
Type: biochemical
Conditions: pH 6.8, 25 °C, 30 min, 0.05-3.2 mM substrate; free enzyme

Row | Km [µM] | SMILES
1 | 333 | CCCCCCCCCC(=O)Oc1ccc([N+](=O)[O-])cc1 [pNP-decanoate]
2 | 336 | CCCCCCCCCCCCCCCC(=O)Oc1ccc([N+](=O)[O-])cc1 [p-nitrophenyl palmitate]
